In the assay the target is T1, rAb-FAR-1 (Aphelenchoides besseyi, UniProt R9QS34).
T1 construct: E. coli BL21(DE3), pET-32a (BamHI/XhoI), N-terminal His-tag fusion, Ni-purified; ORF 181 aa with predicted signal peptide; called full-length, primer FARf-BamHI lacks ATG at its start
The assay can be described thus: fluorescence titration. It counts as binding.

T1 sequence (R9QS34 entry or part of it): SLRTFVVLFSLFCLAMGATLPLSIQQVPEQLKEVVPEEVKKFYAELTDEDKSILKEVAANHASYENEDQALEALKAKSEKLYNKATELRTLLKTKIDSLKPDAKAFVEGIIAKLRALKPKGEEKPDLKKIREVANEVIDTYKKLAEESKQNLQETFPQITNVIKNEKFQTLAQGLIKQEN

In turn, `CN(C)c1cccc2c(S(=O)(=O)NCCCCCCCCCCC(=O)O)cccc12` [DAUDA, 11-((5-dimethylaminonaphthalene-1-sulfonyl)amino) undecannoic acid] came in with a Kd of 3.4 µM.
For `CC1=C(/C=C/C(C)=C/C=C/C(C)=C/CO)C(C)(C)CCC1` [retinol] the value was 3.41 µM; for `CC\C=C/C=C/C=C/C=C\CCCCCCCC(=O)O` [cis-parinaric acid], 6.69 µM.

The term Kd denotes the concentration at which binding is half-saturated. High values mean a looser complex, low ones a tighter complex.

For the origin of these results see paper PMC3673936, “Molecular Characterization and Functions of Fatty Acid and Retinoid Binding Protein Gene (Ab-far-1) in Aphelenchoides besseyi” (PLoS ONE, 2013).
